Activity calls are given as the source filed them. No rule for the calls is given here.

The values below come from PubChem BioAssay AID1288 (Columbia University Molecular Screening Center, 2008).

The assay is described as follows: inhibitors of TNFa-induced E-selectin expression, confirmation, imaging, retest plus dose response, cell count (AID 1288).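 Also: 0% = stimulated vehicle wells and 100% = unstimulated vehicle wells.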 The note with it: human endothelial cells, TNFa-induced E-selectin, imaging; at 2 µM; stronger effect = higher value.
With `COC(=O)c1cc2sc(Cl)cc2n1CC(=O)Nc1cccc(SC)c1`, the inhibition is 2.57% (inactive).
As to `O=C(/C=C\Nc1cccc(F)c1)c1cccs1`, the inhibition is -1.7% (inactive).
On to `Cc1cccc(NC(=S)Nc2ccccn2)c1C`, for which the inhibition is -0.54% (inactive).
For `CCn1cc(C(=O)O)c(=O)c2cc(F)c(N3CCN(C(=S)NC(=O)c4ccc(Br)cc4)CC3)cc21`, the inhibition is 7.45% (inactive).
As to `COc1ccc(C2C(C#N)=C(SCC(=O)Nc3ccc(C)cc3)NC3=C2C(=O)CC(C)(C)C3)cc1` (stereo not drawn), the inhibition was 4.4% (inactive).
Consider `Cc1ccc(C2(C)NC(=O)N(CCOc3ccccc3)C2=O)cc1` (stereo not drawn), for which the inhibition was 3.16% (inactive).
For the molecule `CC(C)CCNC(=O)C1CCN(c2nc3ccccc3o2)CC1`, the inhibition is 12.3% (inactive).
To `CCOC(=O)c1c(NC(=O)CSc2nnc(-c3ccccc3)n2CC)sc(C(C)=O)c1C` belongs 8.92% (inactive); to `COc1ccc(OC)c(CCNC(=O)CSc2ccsc2[N+](=O)[O-])c1`, 4.97% (inactive).
As to `COc1ccc(CCNC(=O)COc2ncnc3cc([N+](=O)[O-])ccc23)cc1`, the inhibition was 15.8% (inactive).
To `COc1ccccc1NC(=O)CSc1nnc2ccc(-c3cccnc3)nn12` belongs -0.72% (inactive).
In the case of `COc1cc(S(=O)(=O)NC2CCCCC2C)ccc1Cl` (stereo not drawn) it was 9.69% (inactive); in that of `COc1cccc(CNc2ccc(F)c(Cl)c2)c1`, 39.9% (inactive); in that of `Cc1ccc(C)n1-c1cccc(NC(=O)c2ccccc2)c1`, 0.87% (inactive).
On to `O=Cc1ccc(OCc2ccccn2)cc1`, for which the inhibition is 15.8% (inactive).
In the case of `O=C(CSc1nnc(CNc2ccc(F)cc2)o1)N1CCCc2ccccc21` it was 2.29% (inactive); in that of `COc1c(Cl)cc(Cl)cc1C(=O)Nc1ccc(NC(C)=O)cc1`, 5.32% (inactive).
`CCN(/N=C/c1ccc(Cl)cc1)c1cc(=O)n(C)c(=O)[nH]1`: the inhibition is 12.2% (inactive).
Consider `CC(C)(C)c1ccc(OCCCNCc2ccccc2)cc1`, for which the inhibition was -6.22% (inactive).
In the case of `COC(=O)c1cc2oc(C)cc2n1CC(=O)N1CCCc2ccccc21` it was 9.68% (inactive); in that of `COC(=O)c1c(-c2ccccc2)csc1NC(=O)c1ccco1`, 14.7% (inactive).
Consider `N/C(=N\c1nc(CSc2ccc(Cl)cc2)cc(=O)[nH]1)Nc1cccc2ccccc12`, for which the inhibition was 6.58% (inactive).
Regarding `NC(=O)NOCc1ccccc1`, the inhibition was -1.04% (inactive).
As to `O=C(O)/C=C/c1ccc2ccccc2n1`, the inhibition is -2.31% (inactive).
For the molecule `CC(C)CCNC(=O)c1nnc(Cc2ccc(Cl)cc2)o1`, the inhibition is 4.7% (inactive).
Consider `O=C1C=C(c2ccccc2)C(O)(c2ccccc2)C1` (stereo not drawn), for which the inhibition was -0.71% (inactive).
`Cc1ccc(CNc2ccc(S(=O)(=O)N3CCOCC3)cc2[N+](=O)[O-])cc1`: the inhibition was 0.77% (inactive).
`Cc1ccc(CNCC(O)(c2ccccc2)c2ccc(Cl)cc2)cc1` (stereo not drawn): the inhibition is 5.94% (inactive).
To `O=C(/C=C/c1ccccc1)Nc1ncn[nH]1` belongs 5.62% (inactive).
With `CC(C)c1c(O)cc(-c2ccncc2)n(-c2ccc(Cl)cc2)c1=O`, the inhibition is 3.17% (inactive).
Regarding `O=C1NCCCc2c1oc1cc(Br)c(O)c(Br)c21`, the inhibition was 15.8% (inactive).
`Cc1ccc(NC(=O)N2CCC(C(=O)NCCC3=CCCCC3)CC2)cc1`: the inhibition was 11.6% (inactive).
Consider `CN1CCN(C(c2ccc(F)cc2)c2nnnn2Cc2cccs2)CC1` (stereo not drawn), for which the inhibition was 10.2% (inactive).
To `O=C(Nc1ccc(Cl)cc1)c1cc2nc(-c3ccco3)cc(C(F)(F)F)n2n1` belongs 14.3% (inactive); to `COc1cc(-c2nnc(COc3ccc4ccccc4c3)o2)cc(OC)c1OC`, 5.08% (inactive); to `CCn1c(SCC(=O)Nc2ccccc2)nnc1C1CCCCC1`, 2.46% (inactive).
In the case of `CC(C)(C)c1cc(OC(=O)c2ccncc2)ccc1O` it was 7.95% (inactive); in that of `O=C(c1cccc(F)c1)N1CCN(c2cc(N3CCCCC3)c(F)cc2[N+](=O)[O-])CC1`, 4.49% (inactive); in that of `Cc1ccc(S(=O)(=O)N(C)CCCC(=O)Nc2cc(C)ccc2C)cc1`, -2.3% (inactive).
To `Cc1nc(=O)c(-c2ccccc2)c(C)n1-c1ccc(S(N)(=O)=O)cc1` belongs 42.4% (inactive); to `CCOc1cccc(C(=O)NC(=S)Nc2ccc(N3CCCC3)cc2)c1`, 10.5% (inactive); to `CCOC(=O)C(C)Oc1cccc2c(=O)n(CC(=O)Nc3cccc(OC)c3)ccc12` (stereo not drawn), 22.4% (inactive).
Regarding `O=S1(=O)CCN(CCc2c[nH]c3ccccc23)CC1`, the inhibition is -4.95% (inactive).
On to `O=C(Cn1cc(C(=O)C(F)(F)F)c2cc(Br)ccc21)N1CCOCC1`, for which the inhibition is 7.56% (inactive).
In the case of `Fc1ccccc1SCc1nnc(-c2ccccc2Br)o1` it was 9.24% (inactive); in that of `Cc1ccc(-n2ncc3c(=O)n(CC(=O)N4CCCCCC4)cnc32)cc1`, -0.4% (inactive).
Regarding `Cn1cc(Cl)c(C(=O)NNC(=S)NCc2ccco2)n1`, the inhibition was 7.71% (inactive).
Take `CCOC(=O)c1cc2c(ccn2C)n1CC(=O)N1CCC(Cc2ccccc2)CC1`: the inhibition was 4.26% (inactive).
As for `COc1ccc(/C(O)=C2/C(=O)C(=O)N(Cc3cccnc3)C2c2ccncc2)cc1F` (stereo not drawn), the inhibition is 19.1% (inactive).
As for `CCC(=O)NC(c1ccc([N+](=O)[O-])cc1)c1c(O)ccc2ccccc12` (stereo not drawn), the inhibition is 0.15% (inactive).
On to `CC1Cc2cc(/C(O)=C3/C(=O)C(=O)N(CCCn4ccnc4)C3c3ccncc3)ccc2O1` (stereo not drawn), for which the inhibition is 5.53% (inactive).
For the molecule `C=CCn1c(=O)c2ccccc2n2c(SCC(=O)N3CCCc4ccccc43)nnc12`, the inhibition is 6.51% (inactive).
Turning to `Cc1ccccc1Cn1ccc(NC(=O)c2cnn3c2NC(c2ccccc2)CC3C(F)(F)F)n1` (stereo not drawn), the inhibition is 2.9% (inactive).
`Cc1ccc(C(C)n2cc(C(=O)NCCN3CCN(C)CC3)nn2)cc1` (stereo not drawn): the inhibition was 22.4% (inactive).
As for `O=C1c2ccccc2C(Nc2ccc(S(=O)(=O)N3CCCCCC3)cc2)N1Cc1ccco1` (stereo not drawn), the inhibition was 1.55% (inactive).
`N#Cc1cc2sc3nnc(-c4ccncc4)n3c2cc1C#N`: the inhibition was 24.9% (inactive).
Regarding `Cc1ccc(C)n1NC(=O)c1cccs1`, the inhibition was 7.45% (inactive).
Turning to `CCOC(=O)C1CCCN(Cc2ccccc2F)C1` (stereo not drawn), the inhibition is 30.6% (inactive).
Turning to `Cc1ccc(N2C(=O)[C@@H]3C(C(=O)CCN4C(=O)c5ccccc5C4=O)=NN[C@@H]3C2=O)cc1`, the inhibition is 6.74% (inactive).
To `O=C(/C=C/Nc1cccc(C(F)(F)F)c1)c1ccc(Oc2ncccn2)cc1` belongs 18% (inactive); to `O=C(CSc1nc2ccccc2[nH]1)N1CCN(S(=O)(=O)c2ccc(Cl)cc2)CC1`, 3.87% (inactive).
Turning to `CC1=NN(C(C)C)C(=O)C1`, the inhibition is 25.1% (inactive).
In the case of `O=C(O)C1C2C=CC(C2)C1C(=O)NCCCc1ccccc1` (stereo not drawn) it was 3.67% (inactive).
`CCOC(=O)c1sc2nc(CSc3nc4ccccc4n3CC)[nH]c(=O)c2c1C`: the inhibition is -2.72% (inactive).
Regarding `CN(C)c1ccc(NC(=O)COC(=O)Cn2nnc3ccccc32)cc1`, the inhibition is 0.53% (inactive).
As to `Cc1cc(-n2nc(C)cc2C)nc(NS(=O)(=O)c2ccccc2)n1`, the inhibition is 14.8% (inactive).
With `CC1(C)CC(=O)C(C=NCC2CCCO2)=C(O)C1` (stereo not drawn), the inhibition is 17.9% (inactive).
In the case of `CCN(CC)c1ccc(C2C(C(=O)OCCOC)=C(C)NC3=C2C(=O)CC(C)(C)C3)cc1` (stereo not drawn), the inhibition is -4.2% (inactive).
Turning to `CCn1nnnc1-c1ccc(OC)c(S(=O)(=O)NCc2ccccc2)c1`, the inhibition is 5.72% (inactive).
On to `CCN(C(=O)COC(=O)c1cc(C)n(-c2ccc(F)cc2)c1C)C1CCS(=O)(=O)C1` (stereo not drawn), for which the inhibition was 2.1% (inactive).
With `CCN(CC)c1ccc(NC(=O)COC(=O)/C=C/c2nc3ccccc3s2)cc1`, the inhibition was 15.5% (inactive).
Turning to `Cn1c(SCc2ccc(Br)cc2)nnc1-c1ccncc1`, the inhibition is 0.83% (inactive).
Consider `CSc1cccc(NC(=O)C2CCCN(S(=O)(=O)c3ccc(F)cc3)C2)c1` (stereo not drawn), for which the inhibition is 35.8% (inactive).
Take `Cc1cc(NC(=O)CCc2ccc(S(=O)(=O)N3CCOCC3)cc2)n(-c2ccccc2)n1`: the inhibition is -9.97% (inactive).
Regarding `O=C(C1CCCO1)N1CCN(c2c3c(nc4cc(-c5ccc(F)cc5)nn24)CCC3)CC1` (stereo not drawn), the inhibition is 5.9% (inactive).
For the molecule `CCCn1c(CN2CCN(c3cccc(Cl)c3)CC2)nc2c1c(=O)n(C)c(=O)n2C`, the inhibition was 7.73% (inactive).
To `Cc1ccc(/C=N/n2c(=O)c(C(C)(C)C)nn3cnnc23)cc1` belongs 6.53% (inactive); to `CC(C)=C1SC(N2CCN(c3ccc(C)cc3)CC2)=NC1=O`, -3.72% (inactive).
For `Cc1cc(C)cc(C(=O)Oc2coc(CSc3nnc(NC(=O)C4CC4)s3)cc2=O)c1`, the inhibition is 6.25% (inactive).
On to `N#CC(C#N)=C/C(C#N)=C(/N)N1CCN(c2ccc(Cl)cc2)CC1`, for which the inhibition was 6.82% (inactive).
In the case of `Cc1ccc(NC(=O)COc2ccc(-n3ccnc3)cc2)cc1Cl`, the inhibition was 9.69% (inactive).
For the molecule `O=C1CC(c2ccccc2)CC2=C1CN(C1CCCCC1)CN2` (stereo not drawn), the inhibition is 10.2% (inactive).
Take `N#Cc1ccsc1NC(=O)COC(=O)c1ccc2ccccc2c1`: the inhibition was 5.46% (inactive).
As for `COc1cc(CN2CCN(c3ccc(C)cc3)CC2)cc([N+](=O)[O-])c1O`, the inhibition is 24.7% (inactive).
In the case of `O=C(c1cccs1)N1CCN=C1SCc1ccccc1` it was 9.69% (inactive).
On to `CCC(=O)c1ccc(N2CCOCC2)c(F)c1`, for which the inhibition is 10.3% (inactive).
In the case of `Cc1cc(S(=O)(=O)N2CCN(c3ccccc3O)CC2)c(C)s1`, the inhibition is 5.21% (inactive).
As to `Cc1cccc(NC(=O)Nc2ccc(C#N)cc2)n1`, the inhibition was 4.19% (inactive).

One may read the inhibition as the drop in the measured response relative to a control, in per cent.
